From ChEMBL document CHEMBL3430912, “GSK Tres Cantos Anti-Kinetoplastid Screening (TCAKS) Data”

Experiments:
Trypanosoma cruzi [1] = assay: (§1) GSK_TCAKS: pIC50 H2C9 Imaging: H9c2 Host Cardiomyocytes. […] Cells were then washed once with PBS before infection. T. cruzi trypomastigotes, collected at days 5 to 8 after infection from LLC-MK2 parasite infected cultures, were allowed to swim out for 4h at 37C from a centrifuged pellet (2,500 rpm/10 min/room temperature). Trypomastigotes were then collected and counted in a CASY Cell Counter. Trypomastigotes, in supplemented DMEM, were added to H9c2 cultures in a multiplicity of infection of 1 and incubated for 18 h. Cells were washed once with PBS before incubation of the infected H9c2 monolayer with trypsin (Life-Technologies) to detach cells from the flask. Cells were counted in a CASY Cell Counter using a 150 um capillary and their density set at 5 * 10^4 cells per mL in supplemented assay DMEM. Infected H9c2 were dispensed into 384-well poly-lysine coated assay plates at 50uL per well using a Multidrop Combi dispenser. After seeding them, the plates were incubated at 37C, 5% CO2 for 72h. Cultures were then fixed and stained by addition of 50 uL of a solution containing 8% formaldehyde and 4 uM DRAQ5 DNA dye (BioStatus, UK) per well. […] Five images were collected per well for reliable statistical analysis. Automated image analysis was performed with a script developed on Acapella High Content Imaging and Analysis Software (PerkinElmer). Output: Number of H9c2 Host Cardiomyocytes nuclei to determine drug-related cytotoxicity.; assay type: functional, organism-based, Rattus norvegicus; conditions: H9c2, 4 h
[2] = test system: Trypanosoma brucei brucei; assay: GSK_TCAKS: pIC50 Trypanosoma brucei viability assay using fluorescence intensity. Assay plates (1536-well) were prepared by dispensing 25nL of compound solution per well using an Echo acoustic dispenser (Labcyte).; assay type: functional, organism-based; conditions: Lister 427, 2 h
Leishmania donovani [3] = assay: GSK_TCAKS: pIC50 Leishmania donovani viability assay using fluorescence intensity. Assay plates (1536-well) were prepared by adding 30nL per well of compound. For single shot assay, the final compound concentration was 5uM. […] Briefly, eGFP LdBOB axenic amastigotes were harvested, fixed and counted in a CASY cell counter (Roche-Applied Science). A final concentration of 1.5 * 10^5 cells per well were prepared in amastigote media containing 500 U/mL penicillin/streptomycin (Invitrogen) and 6uL was dispensed to each experimental well using a Multidrop Combi dispenser (Thermo Scientific). 6uL of assay media was dispensed to control columns used as reference for 100% compound response. Following incubation for 72 h at 37C, 5% CO2, 2 uL of resazurin was added to each well at a final concentration of 0.5 mM in phosphate buffered saline (PBS) with IGEPAL (Sigma-Aldrich), 0.05% (v/v).; assay type: functional, organism-based
Leishmania donovani [4] = assay: GSK_TCAKS: pIC50 Leishmania donovani Imaging: Amastigotes/Macrophages. Assay plates (384-well) were prepared by adding 250nL of compound to each well. For single shot assay, the final compound concentration was 5 uM. […] Automated image analysis was performed with a script developed on Acapella High Content Imaging and Analysis Software (PerkinElmer). Output: Average number of amastigotes per macrophage cell were reported for each well.; assay type: functional, organism-based, Homo sapiens; conditions: THP-1
[5] = test system: Trypanosoma brucei brucei; assay: GSK_TCAKS: pIC50 Trypanosoma brucei viability assay using luminiscence. Assay plates (1536-well) were prepared. T. brucei cultures were harvested and counted in a CASY cell counter. A parasite suspension was prepared at a final concentration of 5 * 10^4 cells/mL in complete HMI9 medium and 6uL was dispensed to all wells containing compounds using a Multidrop Combi dispenser. 6uL of HMI9 media with 0.4% DMSO were dispensed to control columns. Plates were incubated for 24 h at 37C, 5% CO2 then tempered for 10 min at room temperature. ATP content was quantified by adding 4 uL of CellTiter-Glo Reagent (Promega) according to the manufacturer's instructions. Luminescence was measured using a ViewLux.; assay type: functional, organism-based; conditions: Lister 427, CASY
[6] = molecular target: Sterol 14-alpha demethylase (Trypanosoma cruzi (strain CL Brener), UniProt Q7Z1V1); assay: GSK_TCAKS: pIC50 CYP51 from Trypanosoma cruzi.; assay type: functional
Trypanosoma cruzi [7] = assay: as §1, with “Trypanosoma cruzi” for “H2C9”, “Amastigotes/Cell.” for “H9c2 Host Cardiomyocytes.”, “number” for “Number”, “amastigotes per cell as infection level measurement.” for “H9c2 Host Cardiomyocytes nuclei to determine drug-related cytotoxicity.”; assay type: functional, organism-based, Rattus norvegicus; conditions: H9c2, 4 h
Leishmania donovani [8] = assay: GSK_TCAKS: pIC50 Leishmania donovani Imaging: THP-1 Host Macrophages. Assay plates (384-well) were prepared by adding 250nL of compound to each well. For single shot assay, the final compound concentration was 5 uM. […] Automated image analysis was performed with a script developed on Acapella High Content Imaging and Analysis Software (PerkinElmer). Output: THP-1 cell count were reported for each well.; assay type: functional, organism-based, Homo sapiens
Trypanosoma cruzi [9] = assay: as §1, with “Trypanosoma cruzi” for “H2C9”, “Infected Cells.” for “H9c2 Host Cardiomyocytes.”, “percentage” for “Number”, “infected cells per well as a second infection marker.” for “H9c2 Host Cardiomyocytes nuclei to determine drug-related cytotoxicity.”; assay type: functional, organism-based, Rattus norvegicus; conditions: H9c2, 4 h
Leishmania donovani [10] = assay: GSK_TCAKS: pIC50 Leishmania donovani Imaging: Infected Macrophages. Assay plates (384-well) were prepared by adding 250nL of compound to each well. For single shot assay, the final compound concentration was 5 uM. […] Automated image analysis was performed with a script developed on Acapella High Content Imaging and Analysis Software (PerkinElmer). Output: Percent of infected macrophage cells were reported for each well.; assay type: functional, organism-based, Homo sapiens; conditions: THP-1
[11] = GSK_TCAKS: pIC50 HepG2 human cell line viability assay using luminiscence. […] Seeding density was checked to ensure that new mono-layers were not more than 50% confluent at the time of harvesting. Cell suspension was added to 500 mL of the same medium at a final density of 1.2 * 10^5 cells/mL. This cell suspension was dispensed (25 uL, 3000 cells per well) into 384-well clear-bottom plates using a Multidrop Combi dispenser. Prior to addition of the cell suspension, the screening compounds (250 nL) were pre-dispensed into the plates with an Echo liquid handler. Plates were incubated for 48 h at 37C, 5% CO2. After incubation, plates equilibrated at room temperature for 30 min before proceeding to develop the luminescent signal. The signal developer, CellTiter-Glo Reagent, was allowed to equilibrate at room temperature for 30 min and added to the plates (25uL per well) using a Multidrop Combi dispenser. Plates were left for 10 min at room temperature for stabilization and then read using a ViewLux.; assay type: toxicity, cell-based
Trypanosoma cruzi [12] = assay: GSK_TCAKS: pIC50 Trypanosoma cruzi viability assay using beta-GAL activity. This assay was run at single shot at 5uM compound concentration per well. The biological reagents consisted of NIH-3T3 host cells and trypomastigotes parasitic cells; both cell types were set to a 3.3 * 10^5 cells/mL dilution in assay DMEM by means of a CASY cell counter device using a 60um capillary. 6 uL of the mixture were dispensed per well (about 1 * 10^3 host-cells and 1 * 10^3 parasites) with a Multidrop Combi dispenser. […] In all wells, the percentage of DMSO never exceeded 0.5%. Plates incubated for four days at 37C, 5% CO2. The substrate used for the assay fluorescence intensity (FLINT) readout was resorufin-beta-D-galactopiranoside (Sigma-Aldrich) at 5uM per well. It was diluted in PBS supplemented with the soft detergent Igepal (Fluka).; assay type: functional, organism-based, Mus musculus; conditions: Tulahuen, NIH3T3

Sequence of Sterol 14-alpha demethylase (Q7Z1V1 whole entry): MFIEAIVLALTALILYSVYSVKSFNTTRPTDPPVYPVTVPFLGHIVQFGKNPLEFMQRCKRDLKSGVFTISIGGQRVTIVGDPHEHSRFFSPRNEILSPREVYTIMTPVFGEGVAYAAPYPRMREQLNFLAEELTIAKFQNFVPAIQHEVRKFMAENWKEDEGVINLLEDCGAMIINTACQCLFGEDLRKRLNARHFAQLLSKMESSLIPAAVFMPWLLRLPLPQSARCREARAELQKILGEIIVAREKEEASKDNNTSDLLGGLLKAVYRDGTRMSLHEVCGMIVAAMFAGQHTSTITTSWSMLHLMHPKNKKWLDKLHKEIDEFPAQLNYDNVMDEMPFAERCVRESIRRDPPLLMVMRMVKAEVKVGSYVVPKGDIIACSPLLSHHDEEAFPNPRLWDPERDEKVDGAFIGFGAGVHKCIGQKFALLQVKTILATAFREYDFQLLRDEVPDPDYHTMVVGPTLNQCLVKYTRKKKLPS

O=C(CN1CCC2(O)CCCCC2C1c1ccc2c(c1)OCO2)Nc1ccc(Cl)cc1Cl (configuration not stated)
IC50 (Trypanosoma cruzi [1]): > 50.1 µM
IC50 [2]: 12.6 µM
IC50 (Leishmania donovani [3]): 5.01 µM
IC50 (Leishmania donovani [4]): 1.26 µM
IC50 [5]: 7.94 µM
IC50 [6]: 12.6 µM
IC50 (Trypanosoma cruzi [7]): 3.16 µM
IC50 (Leishmania donovani [8]): > 50.1 µM
IC50 (Trypanosoma cruzi [9]): 5.01 µM
IC50 (Leishmania donovani [10]): 3.16 µM
IC50 at 48 h [11]: > 100 µM
IC50 (Trypanosoma cruzi [12]): 12.6 µM

CNC(=O)Oc1ccc(C(=O)NCc2ccccc2)cc1OC(=O)NC
IC50 (Trypanosoma cruzi [1]): > 50.1 µM
IC50 [2]: 0.126 µM
IC50 (Leishmania donovani [3]): > 50.1 µM
IC50 (Leishmania donovani [4]): > 50.1 µM
IC50 [5]: 0.398 µM
IC50 [6]: > 100 µM
IC50 (Trypanosoma cruzi [7]): 39.8 µM
IC50 (Leishmania donovani [8]): > 50.1 µM
IC50 (Trypanosoma cruzi [9]): 39.8 µM
IC50 (Leishmania donovani [10]): > 50.1 µM
IC50 at 48 h [11]: > 100 µM
IC50 (Trypanosoma cruzi [12]): 31.6 µM

COc1cccc(S(=O)(=O)Nc2ccc3c(c2)CC(N2CCC(NC(=O)C4CC4)CC2)C3)c1 (configuration not stated)
IC50 (Trypanosoma cruzi [1]): > 50.1 µM
IC50 [2]: 1 µM
IC50 (Leishmania donovani [3]): > 50.1 µM
IC50 (Leishmania donovani [4]): 25.1 µM
IC50 [5]: 0.794 µM
IC50 [6]: 63.1 µM
IC50 (Trypanosoma cruzi [7]): 31.6 µM
IC50 (Leishmania donovani [8]): > 50.1 µM
IC50 (Trypanosoma cruzi [9]): > 50.1 µM
IC50 (Leishmania donovani [10]): > 50.1 µM
IC50 at 48 h [11]: > 100 µM
IC50 (Trypanosoma cruzi [12]): 39.8 µM

Cc1cc(=O)n2nc(Oc3ccc(C#N)cc3Cl)sc2n1
IC50 (Trypanosoma cruzi [1]): 31.6 µM
IC50 [2]: 0.631 µM
IC50 (Leishmania donovani [3]): 12.6 µM
IC50 (Leishmania donovani [4]): 31.6 µM
IC50 [5]: 0.316 µM
IC50 [6]: > 100 µM
IC50 (Trypanosoma cruzi [7]): 25.1 µM
IC50 (Leishmania donovani [8]): 31.6 µM
IC50 (Trypanosoma cruzi [9]): 31.6 µM
IC50 (Leishmania donovani [10]): 31.6 µM
IC50 at 48 h [11]: 39.8 µM
IC50 (Trypanosoma cruzi [12]): 15.8 µM

O=C(Nc1nnc(-c2ccccn2)[nH]1)C1CC1c1ccccc1 (configuration not stated)
IC50 (Trypanosoma cruzi [1]): > 50.1 µM
IC50 [2]: > 12.6 µM
IC50 (Leishmania donovani [3]): 12.6 µM
IC50 (Leishmania donovani [4]): 7.94 µM
IC50 [5]: 20 µM
IC50 [6]: > 100 µM
IC50 (Trypanosoma cruzi [7]): 15.8 µM
IC50 (Leishmania donovani [8]): 20 µM
IC50 (Trypanosoma cruzi [9]): 20 µM
IC50 (Leishmania donovani [10]): 7.94 µM
IC50 at 48 h [11]: > 100 µM
IC50 (Trypanosoma cruzi [12]): 15.8 µM

O=C(NC(CO)c1ccc(F)cc1)c1ccc(-c2c[nH]c3ncccc23)s1 (configuration not stated)
IC50 (Trypanosoma cruzi [1]): 3.98 µM
IC50 [2]: 0.251 µM
IC50 (Leishmania donovani [3]): 31.6 µM
IC50 (Leishmania donovani [4]): 20 µM
IC50 [5]: 0.794 µM
IC50 [6]: 1.26 µM
IC50 (Trypanosoma cruzi [7]): 12.6 µM
IC50 (Leishmania donovani [8]): 10 µM
IC50 (Trypanosoma cruzi [9]): 15.8 µM
IC50 (Leishmania donovani [10]): 25.1 µM
IC50 at 48 h [11]: 39.8 µM
IC50 (Trypanosoma cruzi [12]): 10 µM

c1ccc(Nc2nc(-c3ccccn3)cc(N3CCOCC3)n2)cc1
IC50 (Trypanosoma cruzi [1]): 0.631 µM
IC50 [2]: 15.8 µM
IC50 (Leishmania donovani [3]): 6.31 µM
IC50 (Leishmania donovani [4]): 1.26 µM
IC50 [5]: 12.6 µM
IC50 [6]: > 100 µM
IC50 (Trypanosoma cruzi [7]): 25.1 µM
IC50 (Leishmania donovani [8]): > 50.1 µM
IC50 (Trypanosoma cruzi [9]): > 50.1 µM
IC50 (Leishmania donovani [10]): 2 µM
IC50 at 48 h [11]: > 100 µM
IC50 (Trypanosoma cruzi [12]): 2 µM

CC(C)c1sc(Cl)nc1C(=O)NCCc1nc(C(=O)Nc2ccc3c(c2)OCO3)cs1
IC50 (Trypanosoma cruzi [1]): > 50.1 µM
IC50 [2]: 25.1 µM
IC50 (Leishmania donovani [3]): 3.98 µM
IC50 (Leishmania donovani [4]): 2.51 µM
IC50 [5]: 25.1 µM
IC50 [6]: 7.94 µM
IC50 (Trypanosoma cruzi [7]): 0.631 µM
IC50 (Leishmania donovani [8]): > 50.1 µM
IC50 (Trypanosoma cruzi [9]): 1 µM
IC50 (Leishmania donovani [10]): 5.01 µM
IC50 at 48 h [11]: > 100 µM
IC50 (Trypanosoma cruzi [12]): 4.47 µM

N#Cc1ccc(Br)cc1[N+](=O)[O-]
IC50 (Trypanosoma cruzi [1]): 39.8 µM
IC50 [2]: 0.158 µM
IC50 (Leishmania donovani [3]): 7.94 µM
IC50 (Leishmania donovani [4]): 12.6 µM
IC50 [5]: 0.2 µM
IC50 [6]: 50.1 µM
IC50 (Trypanosoma cruzi [7]): 0.0631 µM
IC50 (Leishmania donovani [8]): 25.1 µM
IC50 (Trypanosoma cruzi [9]): 0.794 µM
IC50 (Leishmania donovani [10]): 20 µM
IC50 at 48 h [11]: 20 µM
IC50 (Trypanosoma cruzi [12]): 0.251 µM

Cc1ccc(S(=O)(=O)Nc2ccc(CN3CCN(C(=O)c4cccc(C)c4)CC3)cc2)cc1
IC50 (Trypanosoma cruzi [1]): > 50.1 µM
IC50 [2]: 0.251 µM
IC50 (Leishmania donovani [3]): 25.1 µM
IC50 (Leishmania donovani [4]): 31.6 µM
IC50 [5]: 0.501 µM
IC50 [6]: 79.4 µM
IC50 (Trypanosoma cruzi [7]): 0.316 µM
IC50 (Leishmania donovani [8]): 39.8 µM
IC50 (Trypanosoma cruzi [9]): 0.316 µM
IC50 (Leishmania donovani [10]): 39.8 µM
IC50 at 48 h [11]: > 100 µM
IC50 (Trypanosoma cruzi [12]): 0.501 µM

Cc1cc2nc(CN(C)Cc3ncccc3C)[nH]c2cc1C
IC50 (Trypanosoma cruzi [1]): 12.6 µM
IC50 [2]: 0.631 µM
IC50 (Leishmania donovani [3]): 5.01 µM
IC50 (Leishmania donovani [4]): 0.501 µM
IC50 [5]: 0.631 µM
IC50 [6]: 79.4 µM
IC50 (Trypanosoma cruzi [7]): 0.501 µM
IC50 (Leishmania donovani [8]): 7.94 µM
IC50 (Trypanosoma cruzi [9]): 1 µM
IC50 (Leishmania donovani [10]): 0.631 µM
IC50 at 48 h [11]: 39.8 µM
IC50 (Trypanosoma cruzi [12]): 0.501 µM
